# In US20250295652A1, “Inhibitors of Molluscum Contagiosum Infection and Methods Using the Same” (priority 2021, published 2025):
# Like-named read-outs stand apart in the source and are kept apart here.
# Experiments:
# VV = assay: microbe, parasite or virus in culture; type: cell-based, vaccinia virus
# mD4-VV surrogate virus = assay: microbe, parasite or virus in culture; type: cell-based, mD4/vaccinia hybrid virus; conditions: for EC50: Hybrid virus, BSC-1, read-out: mD4 EC50
# [1] = Orthopoxvirus vaccinia, BSC-1, read-out: VV EC50
SMILES,EC50 (VV; [1]) [µM],EC50 (mD4-VV surrogate virus) [µM],further results
"COC(=O)c1c(NC(=O)C2CCc3ccccc32)sc(C(N)=O)c1C (stereo not drawn) [Compound 35, 5-Carbamoyl-2-[(indane-1-carbonyl)-amino]-4-methyl-thiophene-3-carboxylic acid methyl ester]",20.4,,
"CCC(C(=O)N(C(=O)C(CC)c1ccccc1)c1sc(C)c(C)c1C#N)c1ccccc1 (stereo not drawn) [Compound 39, N-(3-Cyano-4,5-dimethyl-thiophen-2-yl)-2-phenyl-N-(2-phenyl-butyryl)-butyramide]",11,,
"CCC(C(=O)Nc1sc(C(=O)N(CC)CC)c(C)c1C#N)c1ccccc1 (stereo not drawn) [Compound 66, 4-cyano-N,N-diethyl-3-methyl-5-(2-phenylbutanamido)thiophene-2-carboxamide]",42.2,,
"CCC(C(=O)Nc1sccc1C(N)=O)c1ccccc1 (stereo not drawn) [Compound 31, 2-(2-phenylbutanamido)thiophene-3-carboxamide]",49.7,,
"CCC(C(=O)Nc1sc(C(N)=O)c(C)c1C#N)c1ccc([N+](=O)[O-])cc1 (stereo not drawn) [Compound 75, 5-(2-(4-Nitrophenyl)butanamido)-4-cyano-3-methylthiophene-2-carboxamide]",35,,
"CCC(C(=O)Nc1nc(-c2ccccc2)cs1)c1ccccc1 (stereo not drawn) [Compound 76, 2-phenyl-N-(4-phenylthiazol-2-yl)butanamide]",18.4,,
"CC[C@H](C(=O)Nc1sc(C(N)=O)c(C)c1C(=O)OC)c1ccccc1 [Compound 15, methyl (S)-5-carbamoyl-4-methyl-2-(2-phenylbutanamido)thiophene-3-carboxylate]",17.9,,
"CCOC(=O)c1c(NC(=O)C(CC)c2ccccc2)sc(C)c1CC (stereo not drawn) [Compound 2, ethyl 4-ethyl-5-methyl-2-(2-phenylbutanamido)thiophene-3-carboxylate]",36.6,,
"COC(=O)c1c(NC(=O)C2(c3ccccc3)CC2)sc(C(N)=O)c1C [Compound 36, 5-Carbamoyl-4-methyl-2-[(1-phenyl-cyclopropanecarbonyl)-amino]-thiophene-3-carboxylic acid methyl ester]",14.3,,
"CCC(C(=O)Nc1cc(C)cs1)c1ccccc1 (stereo not drawn) [Compound 34, N-(4-methyl-thiophen-2-yl)-2-phenyl-butyramide]",46.7,,
"CCC(C(=O)Nc1sc(C(N)=O)c(C)c1C#N)c1ccccc1 (stereo not drawn) [Compound 9, 4-cyano-3-methyl-5-(2-phenylbutanamido)thiophene-2-carboxamide]",11.3,,
"CC[C@@H](C(=O)Nc1sc(C(N)=O)c(C)c1C(=O)OC)c1ccccc1 [Compound 17, methyl (R)-5-carbamoyl-4-methyl-2-(2-phenylbutanamido)thiophene-3-carboxylate]",,,EC50 (VV; read-out: VV EC50): 26.8 µM
"CCC(C(=O)Nc1sc(C(=O)N(CC)CC)c(C)c1C(=O)OC)c1ccccc1 (stereo not drawn) [Compound 24, methyl 5-(diethylcarbamoyl)-4-methyl-2-(2-phenylbutanamido)thiophene-3-carboxylate]",16.4,,
"CCOC(=O)c1c(NC(=O)C2CCCCC2)sc(C(N)=O)c1C [Compound 4, ethyl 5-carbamoyl-2-(cyclohexanecarboxamido)-4-methylthiophene-3-carboxylate]",48.9,,
"CCC(C(=O)Nc1cc(C)c(C(=O)OC)s1)c1ccccc1 (stereo not drawn) [Compound 22, 3-Methyl-5-(2-phenyl-butyrylamino)-thiophene-2-carboxylic acid methyl ester]",26.8,,
"CCOC(=O)c1c(NC(=O)C(CC)c2ccccc2)sc(C(=O)N(C)C)c1C (stereo not drawn) [Compound 5, ethyl 5-(dimethylcarbamoyl)-4-methyl-2-(2-phenylbutanamido)thiophene-3-carboxylate]",29.7,,
"O=C(NCc1ccccc1)c1nnsc1NC(=O)N1CCN(c2ccccc2F)CC1 [Compound 169, 4-(2-Fluoro-phenyl)-piperazine-1-carboxylic acid (4-benzylcarbamoyl-[1,2,3]thiadiazol-5-yl)-amide]",,32.7,
"CCOC(=O)c1c(NC(=O)C(CC)c2ccccc2)sc(C(N)=O)c1C (stereo not drawn) [Compound 8, ethyl 5-carbamoyl-4-methyl-2-(2-phenylbutanamido)thiophene-3-carboxylate]",10.3,,
"CCC(C(=O)Nc1sc(C(N)=O)c(C)c1C(=O)OC)c1ccc(Cl)cc1 (stereo not drawn) [Compound 191, Methyl 5-carbamoyl-2-(2-(4-chlorophenyl)butanamido)-4-methylthiophene-3-carboxylate]",,11.4,
"CCC(C(=O)Nc1sc(C(=O)N2CCNCC2)c(C)c1C(=O)OC)c1ccc(F)cc1 (stereo not drawn) [Compound 201, Methyl 2-[2-(4-fluorophenyl)butanamido]-4-methyl-5-(piperazine-1-carbonyl)thiophene-3-carboxylate]",,> 25,
"CCC(C(=O)Nc1snnc1-c1ccc(F)cc1)c1ccccc1 (stereo not drawn) [Compound 154, N-[4-(4-Fluoro-phenyl)-[1,2,3]thiadiazol-5-yl]-2-phenyl-butyramide]",,32,

SMILES,EC50 (VV; [1]) [µM],EC50 (mD4-VV surrogate virus) [µM],further results
"CCC(C(=O)Nc1sc(C(N)=O)c(C)c1C(=O)OC)c1ccc(C)cc1 (stereo not drawn) [Compound 188, Methyl 5-carbamoyl-4-methyl-2-(2-(p-tolyl)butanamido)thiophene-3-carboxylate]",,64.1,
"CCC(C(=O)Nc1sc(C(N)=O)c(C)c1C(=O)OC)c1ccccc1OC (stereo not drawn) [Compound 95, Methyl 2-(2-(2-methoxyphenyl)butanamido)-5-carbamoyl-4-methylthiophene-3-carboxylate]",,21.2,
"CCC(C(=O)Nc1sc(C(=O)NCCCN)c(C)c1C(=O)OC)c1ccc(F)cc1 (stereo not drawn) [Compound 203, Methyl 5-(3-aminopropylcarbamoyl)-2-(2-(4-fluorophenyl)butanamido)-4-methylthiophene-3-carboxylate]",,20,
"COC(=O)c1c(NC(=O)N2CCN(c3ccccn3)CC2)sc(C(N)=O)c1C [Compound 116, Methyl 2-(4-(pyridin-2-yl)piperazine-1-carboxamido)-5-carbamoyl-4-methylthiophene-3-carboxylate]",,,% @ 25 uM (mD4) (mD4-VV surrogate virus): 30% @ 25 uM
"CCC(C(=O)Nc1snnc1-c1ccccc1)c1ccccc1 (stereo not drawn) [Compound 155, 2-Phenyl-N-(4-phenyl-[1,2,3]thiadiazol-5-yl)-butyramide]",,16.2,
"CCC(C(=O)Nc1sc(C(=O)OC(C)(C)C)c(C)c1C(=O)OC)c1ccc(C(F)(F)F)cc1 (stereo not drawn) [Compound 198, 2-tert-butyl 4-methyl 5-(2-(4-(trifluoromethyl)phenyl)butanamido)-3-methylthiophene-2,4-dicarboxylate]",,> 50,
"O=C(Nc1snnc1-c1ccc(C(F)(F)F)cc1)N1CCN(c2ccccn2)CC1 [Compound 118, 4-Pyridin-2-yl-piperazine-1-carboxylic acid [4-(4-trifluoromethyl-phenyl)-[1,2,3]thiadiazol-5-yl]-amide]",,4,
"CCOC(=O)c1ncsc1NC(=O)N1CCN(c2ccccn2)CC1 [Compound 127, Ethyl 5-(4-(pyridin-2-yl)piperazine-1-carboxamido)thiazole-4-carboxylate]",,29.5,
"CCOC(=O)c1nnsc1NC(=O)C(CC)c1ccccc1 (stereo not drawn) [Compound 106, 5-(2-Phenyl-butyrylamino)-[1,2,3]thiadiazole-4-carboxylic acid ethyl ester]",,,% @ 25 uM (mD4) (mD4-VV surrogate virus): 40% @ 25 uM
"COC(=O)c1ccsc1NC(=O)N1CCN(c2ccccn2)CC1 [Compound 114, Methyl 2-(4-(pyridin-2-yl)piperazine-1-carboxamido)thiophene-3-carboxylate]",,,% @ 25 uM (mD4) (mD4-VV surrogate virus): 32% @ 25 uM
"CCC(C(=O)Nc1snnc1C(=O)NCc1ccccc1)c1ccccc1 (stereo not drawn) [Compound 135, 5-(2-Phenyl-butyrylamino)-[1,2,3]thiadiazole-4-carboxylic acid benzylamide]",,18.5,
"CCC(C(=O)Nc1snnc1C(=O)NCc1ccc(Cl)cc1)c1ccccc1 (stereo not drawn) [Compound 134, 5-(2-Phenyl-butyrylamino)-[1,2,3]thiadiazole-4-carboxylic acid 4-chloro-benzylamide]",,11.5,
"CCC(C(=O)Nc1sc(C(N)=O)c(C)c1C(=O)NCc1ccc(Cl)cc1)c1ccccc1 (stereo not drawn) [Compound 115, 2-(2-Phenylbutanamido)-N3-(4-chlorobenzyl)-4-methylthiophene-3,5-dicarboxamide]",,11,
"CCC(C(=O)Nc1sc(C(=O)NCCCNC(=O)OC(C)(C)C)c(C)c1C(=O)OC)c1ccc(F)cc1 (stereo not drawn) [Compound 202, Methyl 5-((3-((tert-butoxycarbonyl)amino)propyl)carbamoyl)-2-(2-(4-fluorophenyl)butanamido)-4-methylthiophene-3-carboxylate]",,> 50,
"CCOC(=O)c1ncsc1NC(=O)C(CC)c1ccccc1 (stereo not drawn) [Compound 165, Ethyl 5-(2-phenylbutanamido)thiazole-4-carboxylate]",,,% @ 25 uM (mD4) (mD4-VV surrogate virus): 30.6% @ 25 uM
"CCC(C(=O)Nc1sc(C(N)=O)c(C)c1C(=O)OC)c1ccccc1F (stereo not drawn) [Compound 189, Methyl 5-carbamoyl-2-(2-(2-fluorophenyl)butanamido)-4-methylthiophene-3-carboxylate]",,15.2,
"CCC(C(=O)NC(=O)c1sc(N)c(C(=O)OC)c1C)c1ccc(F)cc1 (stereo not drawn) [Compound 174, Methyl 5-(2-(4-fluorophenyl)butanoylcarbamoyl)-2-amino-4-methylthiophene-3-carboxylate]",,20.5,
"CCC(C(=O)Nc1sc(C(N)=O)c(C)c1C(=O)OC)c1cc(F)cc(F)c1 (stereo not drawn) [Compound 195, Methyl 2-(2-(3,5-difluorophenyl)butanamido)-5-carbamoyl-4-methylthiophene-3-carboxylate]",,25.8,
"CCC(C(=O)Nc1sccc1C(=O)OC)c1ccccc1 (stereo not drawn) [Compound 112, Methyl 2-(2-phenylbutanamido)thiophene-3-carboxylate]",,,% @ 25 uM (mD4) (mD4-VV surrogate virus): 59% @ 25 uM
"CCC(C(=O)Nc1sc(C(=O)NCCc2cccnc2)c(C)c1C(=O)OC)c1ccc(F)cc1 (stereo not drawn) [Compound 187, methyl 2-(2-(4-fluorophenyl)butanamido)-4-methyl-5-((2-(pyridin-3-yl)ethyl)carbamoyl)thiophene-3-carboxylate]",,13.8,
"CCC(C(=O)Nc1sc(C(N)=O)c(C)c1C(=O)OC)c1ccc2c(c1)OCO2 (stereo not drawn) [Compound 193, Methyl 2-(2-(benzo[d][1,3]dioxol-5-yl)butanamido)-5-carbamoyl-4-methylthiophene-3-carboxylate]",,> 50,
